Test system: 922993-354-T-J3-PDC complex spheroid viability
Assay: Anticancer human tumor 922993-354-T-J3-PDC patient-derived endometrial carcinoma cell line growth inhibition [POLQ]
Details: for IC50: curve of first compound; for viability, T/C: stronger effect = lower value
Method in brief: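 Growth inhibition in 3D: complex spheroids (tumor PDC, HUVEC, MSC) treated with POLQ inhibitor combinations; where Cmax unknown, highest tested concentration 10 microM, except SN-38 at 1 microM.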

[1] = second compound 0.0316 µM, first compound 0.0316 µM
[2] = second compound 0.0316 µM, first compound 0.1 µM
[3] = second compound 0.0316 µM, first compound 0.316 µM
[4] = second compound 0.0316 µM, first compound 1 µM
[5] = second compound 0.0316 µM, first compound 3.16 µM
[6] = second compound 0.0316 µM, first compound 10 µM
[7] = second compound 0.1 µM, first compound 0.0316 µM
[8] = second compound 0.1 µM, first compound 0.1 µM
[9] = second compound 0.1 µM, first compound 0.316 µM
[10] = second compound 0.1 µM, first compound 1 µM
[11] = second compound 0.1 µM, first compound 3.16 µM
[12] = second compound 0.1 µM, first compound 10 µM
[13] = second compound 0.316 µM, first compound 0.0316 µM
[14] = second compound 0.316 µM, first compound 0.1 µM
[15] = second compound 0.316 µM, first compound 0.316 µM
[16] = second compound 0.316 µM, first compound 1 µM
[17] = second compound 0.316 µM, first compound 3.16 µM
[18] = second compound 0.316 µM, first compound 10 µM
[19] = second compound 1 µM, first compound 0.0316 µM
[20] = second compound 1 µM, first compound 0.1 µM
[21] = second compound 1 µM, first compound 0.316 µM
[22] = second compound 1 µM, first compound 1 µM
[23] = second compound 1 µM, first compound 3.16 µM
[24] = second compound 1 µM, first compound 10 µM
[25] = second compound 3.16 µM, first compound 0.0316 µM
[26] = second compound 3.16 µM, first compound 0.1 µM
[27] = second compound 3.16 µM, first compound 0.316 µM
[28] = second compound 3.16 µM, first compound 1 µM
[29] = second compound 3.16 µM, first compound 3.16 µM
[30] = second compound 3.16 µM, first compound 10 µM
[31] = second compound 10 µM, first compound 0.0316 µM
[32] = second compound 10 µM, first compound 0.1 µM
[33] = second compound 10 µM, first compound 0.316 µM
[34] = second compound 10 µM, first compound 1 µM
[35] = second compound 10 µM, first compound 3.16 µM
[36] = second compound 10 µM, first compound 10 µM
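Further: spheroids exposed to the agents for one week.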
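Wherever viability, T/C is given: 100% = DMSO vehicle control wells.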

Compound: CC1COCCN1c1cc(C2(O)CC3CCC(C2)O3)c2cnn(-c3ccn[nH]3)c2n1 (stereo not drawn) + Cc1cccc(N(C)C(=O)C2C(O)CCN2c2nc(C)cc(C(F)(F)F)c2C#N)c1
- IC50 (second compound 0.0316 µM): 0.439 µM
- IC50 (second compound 0.1 µM): 0.457 µM
- IC50 (second compound 0.316 µM): 0.58 µM
- IC50 (second compound 1 µM): 0.51 µM
- IC50 (second compound 3.16 µM): 0.39 µM
- IC50 (second compound 10 µM): 0.166 µM
- viability, T/C [1]: 104%
- viability, T/C [2]: 77%
- viability, T/C [3]: 61.6%
- viability, T/C [4]: 33.6%
- viability, T/C [5]: 10.6%
- viability, T/C [6]: 8.67%
- viability, T/C [7]: 109%
- viability, T/C [8]: 93.7%
- viability, T/C [9]: 63.9%
- viability, T/C [10]: 23.2%
- viability, T/C [11]: 10.3%
- viability, T/C [12]: 10.8%
- viability, T/C [13]: 110%
- viability, T/C [14]: 101%
- viability, T/C [15]: 75.5%
- viability, T/C [16]: 27.5%
- viability, T/C [17]: 11.6%
- viability, T/C [18]: 10.9%
- viability, T/C [19]: 97.3%
- viability, T/C [20]: 89.5%
- viability, T/C [21]: 67.9%
- viability, T/C [22]: 25.8%
- viability, T/C [23]: 9.46%
- viability, T/C [24]: 10.4%
- viability, T/C [25]: 101%
- viability, T/C [26]: 89.2%
- viability, T/C [27]: 57.1%
- viability, T/C [28]: 20.7%
- viability, T/C [29]: 8.74%
- viability, T/C [30]: 9.75%
- viability, T/C [31]: 101%
- viability, T/C [32]: 64.6%
- viability, T/C [33]: 32.5%
- viability, T/C [34]: 10.3%
- viability, T/C [35]: 8.71%
- viability, T/C [36]: 9.69%

Compound: CC(=O)O[C@H]1C(=O)[C@@]2(C)[C@H]([C@H](OC(=O)c3ccccc3)[C@]3(O)C[C@H](OC(=O)[C@H](O)[C@@H](NC(=O)c4ccccc4)c4ccccc4)C(C)=C1C3(C)C)[C@]1(OC(C)=O)CO[C@@H]1C[C@@H]2O + Nc1ccc(C#CCN(C(=O)Cc2ncc(C(F)(F)F)cc2C(F)(F)F)c2ccc(F)cc2)nn1
- IC50 (second compound 0.0316 µM): > 3 µM
- IC50 (second compound 0.1 µM): > 3 µM
- IC50 (second compound 0.316 µM): > 3 µM
- IC50 (second compound 1 µM): > 3 µM
- IC50 (second compound 3.16 µM): > 3 µM
- IC50 (second compound 10 µM): > 3 µM
- viability, T/C (second compound 0.0316 µM, first compound 0.00949 µM): 105%
- viability, T/C (second compound 0.0316 µM, first compound 0.03 µM): 107%
- viability, T/C (second compound 0.0316 µM, first compound 0.0949 µM): 102%
- viability, T/C (second compound 0.0316 µM, first compound 0.3 µM): 105%
- viability, T/C (second compound 0.0316 µM, first compound 0.949 µM): 99%
- viability, T/C (second compound 0.0316 µM, first compound 3 µM): 73.4%
- viability, T/C (second compound 0.1 µM, first compound 0.00949 µM): 105%
- viability, T/C (second compound 0.1 µM, first compound 0.03 µM): 106%
- viability, T/C (second compound 0.1 µM, first compound 0.0949 µM): 106%
- viability, T/C (second compound 0.1 µM, first compound 0.3 µM): 106%
- viability, T/C (second compound 0.1 µM, first compound 0.949 µM): 99.9%
- viability, T/C (second compound 0.1 µM, first compound 3 µM): 72.4%
- viability, T/C (second compound 0.316 µM, first compound 0.00949 µM): 107%
- viability, T/C (second compound 0.316 µM, first compound 0.03 µM): 107%
- viability, T/C (second compound 0.316 µM, first compound 0.0949 µM): 104%
- viability, T/C (second compound 0.316 µM, first compound 0.3 µM): 103%
- viability, T/C (second compound 0.316 µM, first compound 0.949 µM): 96.6%
- viability, T/C (second compound 0.316 µM, first compound 3 µM): 78.1%
- viability, T/C (second compound 1 µM, first compound 0.00949 µM): 107%
- viability, T/C (second compound 1 µM, first compound 0.03 µM): 100%
- viability, T/C (second compound 1 µM, first compound 0.0949 µM): 104%
- viability, T/C (second compound 1 µM, first compound 0.3 µM): 107%
- viability, T/C (second compound 1 µM, first compound 0.949 µM): 91.7%
- viability, T/C (second compound 1 µM, first compound 3 µM): 71.4%
- viability, T/C (second compound 3.16 µM, first compound 0.00949 µM): 101%
- viability, T/C (second compound 3.16 µM, first compound 0.03 µM): 105%
- viability, T/C (second compound 3.16 µM, first compound 0.0949 µM): 98.3%
- viability, T/C (second compound 3.16 µM, first compound 0.3 µM): 101%
- viability, T/C (second compound 3.16 µM, first compound 0.949 µM): 83.7%
- viability, T/C (second compound 3.16 µM, first compound 3 µM): 69.8%
- viability, T/C (second compound 10 µM, first compound 0.00949 µM): 90.6%
- viability, T/C (second compound 10 µM, first compound 0.03 µM): 84.3%
- viability, T/C (second compound 10 µM, first compound 0.0949 µM): 69.5%
- viability, T/C (second compound 10 µM, first compound 0.3 µM): 69.8%
- viability, T/C (second compound 10 µM, first compound 0.949 µM): 60.8%
- viability, T/C (second compound 10 µM, first compound 3 µM): 54.8%

Compound: COc1cc(C2c3cc4c(cc3C(OC3OC5COC(C)OC5C(O)C3O)C3COC(=O)C23)OCO4)cc(OC)c1O (stereo not drawn) + Nc1ccc(C#CCN(C(=O)Cc2ncc(C(F)(F)F)cc2C(F)(F)F)c2ccc(F)cc2)nn1
- IC50 (second compound 0.0316 µM): > 10 µM
- IC50 (second compound 0.1 µM): > 10 µM
- IC50 (second compound 0.316 µM): > 10 µM
- IC50 (second compound 1 µM): > 10 µM
- IC50 (second compound 3.16 µM): > 10 µM
- IC50 (second compound 10 µM): 4.39 µM
- viability, T/C [1]: 108%
- viability, T/C [2]: 106%
- viability, T/C [3]: 101%
- viability, T/C [4]: 105%
- viability, T/C [5]: 90.9%
- viability, T/C [6]: 81%
- viability, T/C [7]: 103%
- viability, T/C [8]: 102%
- viability, T/C [9]: 104%
- viability, T/C [10]: 98.2%
- viability, T/C [11]: 97.4%
- viability, T/C [12]: 71.4%
- viability, T/C [13]: 101%
- viability, T/C [14]: 105%
- viability, T/C [15]: 100%
- viability, T/C [16]: 104%
- viability, T/C [17]: 94.2%
- viability, T/C [18]: 76%
- viability, T/C [19]: 105%
- viability, T/C [20]: 103%
- viability, T/C [21]: 103%
- viability, T/C [22]: 100%
- viability, T/C [23]: 96.1%
- viability, T/C [24]: 77%
- viability, T/C [25]: 103%
- viability, T/C [26]: 97.2%
- viability, T/C [27]: 98%
- viability, T/C [28]: 95.6%
- viability, T/C [29]: 88%
- viability, T/C [30]: 67.6%
- viability, T/C [31]: 100%
- viability, T/C [32]: 90.5%
- viability, T/C [33]: 91.2%
- viability, T/C [34]: 75.1%
- viability, T/C [35]: 62.2%
- viability, T/C [36]: 25.3%

Compound: COc1cccc2c1C(=O)c1c(O)c3c(c(O)c1C2=O)CC(O)(C(=O)CO)CC3OC1CC(N)C(O)C(C)O1 (stereo not drawn) + Nc1ccc(C#CCN(C(=O)Cc2ncc(C(F)(F)F)cc2C(F)(F)F)c2ccc(F)cc2)nn1
- IC50 (second compound 0.0316 µM): 5.58 µM
- IC50 (second compound 0.1 µM): 5.44 µM
- IC50 (second compound 0.316 µM): 5.79 µM
- IC50 (second compound 1 µM): 5.39 µM
- IC50 (second compound 3.16 µM): 2.31 µM
- IC50 (second compound 10 µM): 0.24 µM
- viability, T/C [1]: 103%
- viability, T/C [2]: 105%
- viability, T/C [3]: 91.3%
- viability, T/C [4]: 84.9%
- viability, T/C [5]: 74.7%
- viability, T/C [6]: 28.3%
- viability, T/C [7]: 102%
- viability, T/C [8]: 103%
- viability, T/C [9]: 92.3%
- viability, T/C [10]: 87.9%
- viability, T/C [11]: 74.3%
- viability, T/C [12]: 24.9%
- viability, T/C [13]: 105%
- viability, T/C [14]: 101%
- viability, T/C [15]: 99.6%
- viability, T/C [16]: 85.4%
- viability, T/C [17]: 71%
- viability, T/C [18]: 32.1%
- viability, T/C [19]: 98.9%
- viability, T/C [20]: 105%
- viability, T/C [21]: 96.2%
- viability, T/C [22]: 80.7%
- viability, T/C [23]: 72.1%
- viability, T/C [24]: 28.2%
- viability, T/C [25]: 95.2%
- viability, T/C [26]: 93.4%
- viability, T/C [27]: 79.7%
- viability, T/C [28]: 75.4%
- viability, T/C [29]: 39.9%
- viability, T/C [30]: 17.5%
- viability, T/C [31]: 78.7%
- viability, T/C [32]: 75.2%
- viability, T/C [33]: 41.5%
- viability, T/C [34]: 14.5%
- viability, T/C [35]: 38.1%
- viability, T/C [36]: 14.8%
